Here are results for two molecules from patent US11879137B2, “Treatment of type 1 diabetes and autoimmune diseases or disorders” (THE CHILDREN'S MEDICAL CENTER CORPORATION, priority 2017, dated 2024).

Molecules are shown by their SMILES.

Holding throughout (assay type): cell-based, human
In test [1] the test system is CD34+ cells. Briefly: qRT-PCR of PD-L1, CXCR4 and IDO-1 in prostaglandin-modulated CD34+ cells. Conditions: for PD-L1 mRNA expression by RT-PCR: CD34+ cells upon modulation. As for the experimental part: qRT-PCR. RNA was extracted from CD34+ cells using Direct-Zol™ RNA Kits (Zymo, Irvine, CA, USA) and Trizol Reagent (Invitrogen Carlsbad, CA), RNA quality was assessed by Multiskan™ GO Microplate spectrophotometer and the ratios of absorbance at 260 nm and 280 nm were assessed for all the samples. Only samples with RNA ratios within 1.9 were included in the present study. cDNA synthesis was made from purified total RNA by reverse transcription using High capacity cDNA Reverse Transcription RETROscript® Kit (Thermo Fisher Scientific, Waltham, MA, USA) followed by a pre-amplification using Taqman PreAmp Kit (Applied Biosystems) according to the manufacturer's instructions. qRT-PCR analysis was performed using TaqMan assays (Life Technologies, Grand Island, NY) containing PCR primers and TaqMan probes according to the manufacturer's instructions. Normalized expression values were determined using the ΔCt method. Quantitative reverse transcriptase polymerase chain reaction (qRT-PCR) data were normalized for the expression of GAPDH. qRT-PCR reactions were performed in triplicate in a 96-well format using an Applied Biosystems 7900HT fast real-time PCR instrument. Relative expression was calculated using the comparative threshold cycle method as previously described (23, 24). For two-group comparisons, a Student's t test was employed. Reported below are the main characteristics of the primers used: […]
Prostaglandin library screening. PGE2 has been described as a small molecule known to enhance the homing and engraftment of HSPCs. It was therefore sought to screen all known types of prostaglandins using the Prostaglandin Screening Library II, which contains 64 small molecules. Each small molecule contained in the library was first screened for its capacity to upregulate PD-L1 in human CD34+ cells isolated from T1D patients (FIG. 17A-17B). CD34+ cells isolated from T1D patients were cultured in StemSpan SFEMII and pulsed with each PG (prostaglandin) small molecule contained in the aforementioned library at a concentration of 10 μM at 24 and 48h. Using FACS analysis, the MFI (mean fluorescence intensity) of PD-L1 expression was calculated following treatment with each small molecule used to modulate CD34+ cells as compared to untreated/unmodulated CD34+ cells (FIG. 17B). A heat map was generated depicting the degree to which each PG small molecule affected PD-L1 expression on CD34+ cells (FIG. 17B), thus allowing for the evaluation of PG candidates. Based on its ability to modulate PD-L1 expression, PGE2 was selected as a candidate for further study; in addition, PGE2 has been described in the literature and has been tested in clinical trials as a potential therapy for enhancing HSPC engraftment following cord blood transplantation (21). Isolated CD34+ cells from healthy control patients (CTRL) and from T1D patients were cultured in StemSpan SFEMII and pulsed with 10 μM of PGE2 at 24 hours and 48 hours. […] It was therefore sought to perform a migration assay in order to assess the homing properties of PGE2-treated CD34+ cells (FIG. 17F).

A further test relates to PD-L1 on CD34+ cells. Nature of the test: Confocal imaging of PD-L1 on PGE2-treated CD34+ cells. Conditions: vs untreated CD34+ cells. Here is the method: Immunofluorescence and confocal microscopy. Regulatory CD34+(PGE2-modulated) cells and unmodulated CD34+ cells isolated from peripheral blood of healthy controls were fixed in 4% PFA for 1h at 4 C, washed 3 times for 20 min in PBS, and cells were counterstained with blue fluorescent DAPI (1:10000, BioLegend, San Diego, CA) and anti-human PD-L1 (BD Biosciences). Cells were photographed under a 63× objective. Images were captured on a Leica SPSX system with an upright DM6000 microscope and AIR confocal microscope (Nikon Instruments, Melville, NY). Histology was evaluated by at least two expert pathologist (9).
Prostaglandin library screening. PGE2 has been described as a small molecule known to enhance the homing and engraftment of HSPCs. It was therefore sought to screen all known types of prostaglandins using the Prostaglandin Screening Library II, which contains 64 small molecules. Each small molecule contained in the library was first screened for its capacity to upregulate PD-L1 in human CD34+ cells isolated from T1D patients (FIG. 17A-17B). […] Using FACS analysis, the MFI (mean fluorescence intensity) of PD-L1 expression was calculated following treatment with each small molecule used to modulate CD34+ cells as compared to untreated/unmodulated CD34+ cells (FIG. 17B). […]

The subject of test [2] is CD34+ cells. Nature of the test: Transwell migration assay toward SDF-1. Conditions: SDF-1, 2 hours. Here is the method: Migration assay. Transwell migration assays were performed on PGE2-modulated HSPCs compared to unmodulated HSPCs in the presence of 0 to 50 ng/ml SDF-1 (R&D Systems, Minneapolis, MN). In brief, cells were suspended in 0.5% BSA Phenol Red-Free RPMI and plated in the upper chambers of an HTS-Transwell-96-well permeable support plate (Corning, Acton, MA) and incubated at 37° C. in 5% CO2 for 2 hours. After 2 hours incubation, migrated cells were counted using BD TruCount (BD Biosciences) by flow cytometry.
Prostaglandin library screening. PGE2 has been described as a small molecule known to enhance the homing and engraftment of HSPCs. It was therefore sought to screen all known types of prostaglandins using the Prostaglandin Screening Library II, which contains 64 small molecules. Each small molecule contained in the library was first screened for its capacity to upregulate PD-L1 in human CD34+ cells isolated from T1D patients (FIG. 17A-17B). CD34+ cells isolated from T1D patients were cultured in StemSpan SFEMII and pulsed with each PG (prostaglandin) small molecule contained in the aforementioned library at a concentration of 10 μM at 24 and 48h. Using FACS analysis, the MFI (mean fluorescence intensity) of PD-L1 expression was calculated following treatment with each small molecule used to modulate CD34+ cells as compared to untreated/unmodulated CD34+ cells (FIG. 17B). […]

Consider `CCCCC(C)(C)[C@H](O)/C=C/[C@H]1[C@H](O)CC(=O)[C@@H]1C/C=C\CCCC(=O)O` [16,16-dimethyl PGE2], for which the “PD-L1 mRNA expression by RT-PCR” value in the test with CD34+ cells [1] is reported as “marked upregulation”.
For `CCCCC[C@H](O)/C=C/[C@H]1[C@H](O)CC(=O)[C@@H]1C/C=C\CCCC(=O)O` [PGE2, prostaglandin E2], in the test on CD34+ cells [1], the “PD-L1 mRNA expression by RT-PCR” value is listed as “slight increase”. Further, in the test on CD34+ cells [1] (post-pharmacologic modulation), the “IDO-1 expression (mRNA)” value is listed as “remained unchanged”. Further, the “increase of CXCR4 gene expression by RT-PCR” value with CD34+ cells [1] (vs untreated CD34+ cells) is listed as 2 fold. The “PD-L1 surface expression by confocal imaging” value with PD-L1 on CD34+ cells was “upregulated”. In addition, the “homing potential in migration assay” value in the test on CD34+ cells [2] is reported as “substantial increase”.
